From US12091409B2, “Ether linked triazoles as NRF2 activators” (ASTEX THERAPEUTICS LIMITED, priority 2016, dated 2024) come the findings set out here.

In general, EC50 refers to the concentration needed to bring the measured effect to its halfway point.

Where a name gives a salt, the structure may show the parent alone.

In this assay the test system is NQO1 specific enzyme activity in BEAS-2B cells (marker for NRF2 activation). Nature of the assay: BEAS-2B NQO1 MTT Assay. It counts as cell-based. The following applies: Homo sapiens, BEAS-2B, 48 h, NQO1 specific activity induction, 48 hours with compound. The source says:
NAD(P)H:quinone oxidoreductase 1 (NQO1), also called DT diaphorase, is a homodimeric FAD-containing enzyme that catalyzes obligatory NAD(P)H-dependent two-electron reductions of quinones and protects cells against the toxic and neoplastic effects of free radicals and reactive oxygen species arising from one-electron reductions. The transcription of NQO1 is finely regulated by NRF2, and thus NQO1 activity is a good marker for NRF2 activation. On day one, frozen BEAS-2B cells (ATCC) were thawed in a water bath, counted, and re-suspended at a concentration of 250,000 cells/mL. Fifty microliters of cells were plated in 384 well black clear-bottomed plates. Plates were incubated at 37° C., 5% CO2 overnight. On day two, plates were centrifuged and 50 nL of compound or controls were added to the cells. Plates were then incubated at 37° C., 5% CO2 for 48 hours. On day four, medium was aspirated from the plate and crude cell lysates were made by adding 13 uL of 1× Cell Signaling Technologies lysis buffer with 1 Complete, Mini, EDTA-free Protease Inhibitor Tablet (Roche) for each 10 mL of lysis buffer. After lysis plates were incubated for 20 minutes at room temperature. Two microliters of lysate were removed for use in Cell Titer Glo assay (Promega) and MTT cocktail was prepared (Prochaska et. al. 1998) for measurement of NQO1 activity. Fifty microliters of MTT cocktail was added to each well, plate was centrifuged, and analyzed on an Envision plate reader (Perkin Elmer) using Absorbance 570 nm label for 30 minutes. Product formation was measured kinetically and the pEC50 of NQO1 specific activity induction was calculated by plotting the change in absorbance (Delta OD/min) versus the log of compound concentration followed by 3-parameter fitting.
pEC50 is the negative log of the EC50.
EC50s<1 nM (+++++), EC50s 1 nM-10 nM (++++), EC50s 10 nM-100 nM (+++), EC50s 100 nM-1 uM (++), EC50s 1 uM-10 uM (+); EC50s>10 uM (−), or were not determined (ND).
For `CC[C@@H]1CN(Cc2cc([C@H](OCc3cn(C4COC4)nn3)C(C)(C)C(=O)O)ccc2C)S(=O)(=O)c2ccccc2O1` [Example 105], the EC50 fell in the range of 1 to 10 nM.
With `CC[C@@H]1CN(Cc2cc(C(OCc3cn(Cc4cccc(Cn5cc(COC(c6ccc(C)c(CN7C[C@@H](CC)Oc8ccccc8S7(=O)=O)c6)C(C)(C)C(=O)O)nn5)c4)nn3)C(C)(C)C(=O)O)ccc2C)S(=O)(=O)c2ccccc2O1` (stereo partly drawn) [Example 47, (R)-3,3′-(((1,1′-(1,3-phenylenebis(methylene))bis(1H-1,2,3-triazole-4,1-diyl))bis(methylene))bis(oxy))bis(3-(3-(((R)-4-ethyl-1,1-dioxido-3,4-dihydro-2H-benzo[b][1,4,5]oxathiazepin-2-yl)methyl)-4-methylphenyl)-2,2-dimethylpropanoic acid)], the EC50 was in the range of 10 to 100 nM.
In the case of `CCn1cc(COC(c2ccc(C)c(CN(Cc3ccccc3)S(=O)(=O)c3ccccc3)c2)C(C)(C)C(=O)O)nn1` (stereo not drawn) [Example 99, 3-(3-((N-benzylphenylsulfonamido)methyl)-4-methylphenyl)-3-((1-ethyl-1H-1,2,3-triazol-4-yl)methoxy)-2,2-dimethylpropanoic acid], the EC50 lay in the range of 10 to 100 nM.
Then `Cc1ccc(C(OCc2cn(CC3CC[N+]4(CCOCC4)CC3)nn2)C(C)(C)C(=O)O)cc1CN1CC(C)Oc2ccccc2S1(=O)=O` (stereo in doubt) [Example 56, 3-((1-(3-Oxa-6-azaspiro[5.5]undecan-6-ium-9-ylmethyl)-1H-1,2,3-triazol-4-yl)methoxy)-2,2-dimethyl-3-(4-methyl-3-(((S)-4-methyl-1,1-dioxido-3,4-dihydro-2H-benzo[b][1,4,5]oxathiazepin-2-yl)methyl)phenyl)propanoate], with 1000 to 10000 nM; and `Cc1ccc([C@@H](OCc2cn(C)nn2)C(C)(C)C(=O)O)cc1CN1Cc2ncccc2O[C@H](C(C)C)C1` [Example 109, (R)-3-(3-(((R)-2-isopropyl-2,3-dihydropyrido[2,3-b][1,4]-oxazepin-4(5H)-yl)methyl)-4-methylphenyl)-2,2-dimethyl-3-((1-methyl-1H-1,2,3-triazol-4-yl)methoxy)propanoic acid], with 10 to 100 nM; and `Cc1ccc(C(OCc2cn(Cc3ccc(Cn4cc(COC(c5ccc(C)c(CN6C[C@@H](C)Oc7ccccc7S6(=O)=O)c5)C(C)(C)C(=O)O)nn4)cc3)nn2)C(C)(C)C(=O)O)cc1CN1C[C@@H](C)Oc2ccccc2S1(=O)=O` (stereo partly drawn) [Example 48, (R)-3,3′-(((1,1′-(1,4-phenylenebis(methylene))bis(1H-1,2,3-triazole-4,1-diyl))bis(methylene))bis(oxy))bis(2,2-dimethyl-3-(4-methyl-3-(((R)-4-methyl-1,1-dioxido-3,4-dihydro-2H-benzo[b][1,4,5]oxathiazepin-2-yl)methyl)phenyl)propanoic acid)], with 10 to 100 nM.
The same measure for `Cc1ccc(C(OCc2cn(Cc3cccc(Br)c3)nn2)C(C)(C)C(=O)O)cc1CN1C[C@@H](C)Oc2ccccc2S1(=O)=O` (stereo partly drawn) [Example 1, 3-((1-(3-Bromobenzyl)-1H-1,2,3-triazol-4-yl)methoxy)-2,2-dimethyl-3-(4-methyl-3-(((R)-4-methyl-1,1-dioxido-3,4-dihydro-2H-benzo[b][1,4,5]oxathiazepin-2-yl)methyl)phenyl)propanoic acid]: less than 1 nM; for `Cc1ccc(C(OCc2cn(CC3CCCN(C(=O)OC(C)(C)C)C3)nn2)C(C)(C)C(=O)O)cc1CN1C[C@@H](C)Oc2ccccc2S1(=O)=O` (stereo partly drawn) [Example 18, 3-((1-((1-(Tert-butoxycarbonyl)piperidin-3-yl)methyl)-1H-1,2,3-triazol-4-yl)methoxy)-2,2-dimethyl-3-(4-methyl-3-(((R)-4-methyl-1,1-dioxido-3,4-dihydro-2H-benzo[b][1,4,5]oxathiazepin-2-yl)methyl)phenyl)propanoic acid]: 1 to 10 nM; for `CCn1cc(CO[C@@H](c2ccc(C)c(CN3CC(C)Cc4ccncc4S3(=O)=O)c2)C(C)(C)C(=O)O)nn1` (stereo in doubt) [Example 73, (3S)-((1-ethyl-1H-1,2,3-triazol-4-yl)methoxy)-2,2-dimethyl-3-(4-methyl-3-(((R)-4-methyl-1,1-dioxido-4,5-dihydropyrido[4,3-f][1,2]thiazepin-2(3H)-yl)methyl)phenyl)propanoic acid]: 10 to 100 nM.
The same measure for `Cc1ccc(C(OCc2cn(C3COC3)nn2)C(C)(C)C(=O)O)cc1CN1C[C@@H](C)Oc2ccccc2S1(=O)=O` (stereo partly drawn) [Example 104, 2,2-Dimethyl-3-(4-methyl-3-(((R)-4-methyl-1,1-dioxido-3,4-dihydro-2H-benzo[b][1,4,5]oxathiazepin-2-yl)methyl)phenyl)-3-((1-(oxetan-3-yl)-1H-1,2,3-triazol-4-yl)methoxy)propanoic acid]: 10 to 100 nM; for `Cc1ccc(C(OCc2cn(CCOCCN=[N+]=[N-])nn2)C(C)(C)C(=O)O)cc1CN1C[C@@H](C)Oc2ccccc2S1(=O)=O` (single isomer, unassigned) [Example 14]: 1 to 10 nM.
Consider `Cc1ccc(C(OCc2cn(CC3CCN(C4CCN(C)CC4)CC3)nn2)C(C)(C)C(=O)O)cc1CN1C[C@@H](C)Oc2ccccc2S1(=O)=O` (stereo partly drawn) [Example 55, 2,2-Dimethyl-3-(4-methyl-3-(((R)-4-methyl-1,1-dioxido-3,4-dihydro-2H-benzo[b][1,4,5]oxathiazepin-2-yl)methyl)phenyl)-3-((1-((1′-methyl-[1,4′-bipiperidin]-4-yl)methyl)-1H-1,2,3-triazol-4-yl)methoxy)propanoic Acid, Formic Acid Salt], for which the concentration giving a half-maximal response (EC50) lay in the range of 100 to 1000 nM.
Consider `CC[C@@H]1CN(Cc2cc([C@@H](OCc3cn(CC)nn3)C(C)(C)C(=O)O)ccc2C)S(=O)(=O)c2ccccc2O1` [Example 5, (R)-3-(3-(((R)-4-ethyl-1,1-dioxido-3,4-dihydro-2H-benzo[b][1,4,5]oxathiazepin-2-yl)methyl)-4-methylphenyl)-3-((1-ethyl-1H-1,2,3-triazol-4-yl)methoxy)-2,2-dimethylpropanoic acid], for which the EC50 was less than 1 nM.
Regarding `CC[C@@H]1CN(Cc2cc([C@@H](OCc3cn(C)nn3)C(C)(C)C(=O)O)ccc2C)Cc2nc(C)ccc2O1` [Example 110, (R)-3-(3-(((R)-2-Ethyl-7-methyl-2,3-dihydropyrido[2,3-f][1,4]oxazepin-4(5H)-yl)methyl)-4-methylphenyl)-2,2-dimethyl-3-((1-methyl-1H-1,2,3-triazol-4-yl)methoxy)propanoic acid trifluoroacetate], the EC50 fell in the range of 1 to 10 nM.
On to `CCn1cc(COC(c2ccc(C)c(CN3CC(C)(C)Oc4ccccc4S3(=O)=O)c2)C(C)(C)C(=O)O)nn1` (stereo not drawn) [Example 12, 3-(3-((4,4-dimethyl-1,1-dioxido-3,4-dihydro-2H-benzo[b][1,4,5]oxathiazepin-2-yl)methyl)-4-methylphenyl)-3-((1-ethyl-1H-1,2,3-triazol-4-yl)methoxy)-2,2-dimethylpropanoic acid], for which the EC50 is 1 to 10 nM.
The same measure for `CCCn1cc(CO[C@H](c2ccc(C)c(CN3C[C@H](C)Cc4ccncc4S3(=O)=O)c2)C(C)(C)C(=O)O)nn1` [Example 67, (R)-2,2-dimethyl-3-(4-methyl-3-(((R)-4-methyl-1,1-dioxido-4,5-dihydropyrido[4,3-f][1,2]thiazepin-2(3H)-yl)methyl)phenyl)-3-((1-propyl-1H-1,2,3-triazol-4-yl)methoxy)propanoic acid]: 100 to 1000 nM.
Take `Cc1ccc([C@H](OCc2cn(CCOCCn3cc(CO[C@@H](c4ccc(C)c(CN5C[C@@H](C)Oc6ccccc6S5(=O)=O)c4)C(C)(C)C(=O)O)nn3)nn2)C(C)(C)C(=O)O)cc1CN1C[C@@H](C)Oc2ccccc2S1(=O)=O` (relative stereo) [Example 50, (R,rel-3S, rel-3′S)-3,3′-(((1,1′-(oxybis(ethane-2,1-diyl))bis(1H-1,2,3-triazole-4,1-diyl))bis(methylene))bis(oxy))bis(2,2-dimethyl-3-(4-methyl-3-(((R)-4-methyl-1,1-dioxido-3,4-dihydro-2H-benzo[b][1,4,5]oxathiazepin-2-yl)methyl)phenyl)propanoic acid)]: the EC50 was in the range of 10 to 100 nM.
The same measure for `CCC(=O)N1CCC(Cn2cc(COC(c3ccc(C)c(CN4C[C@@H](C)Oc5ccccc5S4(=O)=O)c3)C(C)(C)C(=O)O)nn2)CC1` (stereo partly drawn) [Example 33, 2,2-Dimethyl-3-(4-methyl-3-(((R)-4-methyl-1,1-dioxido-3,4-dihydro-2H-benzo[b][1,4,5]oxathiazepin-2-yl)methyl)phenyl)-3-((1-((1-propionylpiperidin-4-yl)methyl)-1H-1,2,3-triazol-4-yl)methoxy)propanoic acid]: 10 to 100 nM.
